Consider two molecules from publication PMC6155812, “Synthesis, Anti-Breast Cancer Activity, and Molecular Docking Study of a New Group of Acetylenic Quinolinesulfonamide Derivatives” (Molecules : A Journal of Synthetic Chemistry and Natural …, 2017).

Data set [1] relates to MCF-7 (human adenocarcinoma) cells. In words: WST-1 antiproliferative assay, MCF-7. The class given is cell-based. Conditions: Homo sapiens, MCF7, WST-1 assay, 3–4 days, 0.5–250 µM; neg = negative in concentration used; read-out: IC50 ± SD, MCF-7. The source says: (§1) Encouraged by promising results in the field of antiproliferative derivatives of acetylenic sulfanylquinoline derivatives, in this study the decision was made to combine the biological potentials of sulfamoylquinoline and alkynyl moieties, with the intention of obtaining compounds with better activity against breast cancer cell lines. The SAR analyses of the acetylenic sufamoylquinoline were based on the cell growth inhibition potencies on the MCF-7 (human adenocarcinoma), MDA-MB-231 and T-47D (human ductal carcinoma) cells using the WST-1 assay. The results from the in vitro cytotoxicity assay are expressed as the concentration of compound (µM) that inhibited the proliferation of 50% of the tumor cells, compared to the control untreated cells (IC50). Cisplatin was used as a positive control to induce cell death.
(§2) The cell lines (MCF-7, MDA-MB-231, and nontumor HFF-1) were cultured and kept in Dubecco’s modified Eagle medium (DMEM) supplemented with 10% fetal bovine serum (FBS) 1.000 IU·mL^−1 penicillin and 10 mg·m^−1·mL^−1 streptomycin in atmosphere with 5% CO2 at 37 °C. The cells were seeded using a series of standard 96-well plates (Corning). Test compounds were prepared at a concentration of 5.0 mM dimethyl sulfoxide (DMSO). Freshly prepared dilutions of the test compounds in a culture medium at a concentration of 0.5–250 µM were added to the microtiter plates and the cells were grown for 3–4 days. Solvent control (DMSO) was included to check its potential inhibitory activity at the concentration used. After incubation, the cell growth rate was evaluated by performing a WST-1 assay. The amount of formazan produced was measured at 450 nm. Expermentally determined absorbance values were transformed into the cell percentage of growth as described previously. Each test point was performed in triplicate for each tested compound cocentration. The results were statistically analyzed using PraphPad Prism 6 software (Graphpad Software, Inc., La Jolla, CA, USA).

Data set [2] deals with T47D (human ductal carcinoma) cells. Description: WST-1 antiproliferative assay, T47D. The class given is cell-based. To be noted: Homo sapiens, T47D, WST-1 assay, 3–4 days, 0.5–250 µM; neg = negative in concentration used; read-out: IC50 ± SD, T47D.
Source text: as §1, §2
(In general: Tetrazolium dyes change colour on reduction, which living cells bring about.)

Data set [3] deals with MDA-MB-231 cells. Description: WST-1 antiproliferative assay, MDA-MB-231. It is filed as cell-based, human. Conditions: Homo sapiens, MDA-MB-231, WST-1 assay, 3–4 days, 0.5–250 µM; neg = negative in concentration used; read-out: IC50 ± SD, MDA-MB-231.
Source text: as §1, §2

The subject of data set [4] is HFF-1 normal fibroblasts. In words: WST-1 cytotoxicity assay, normal fibroblasts HFF-1. It is filed as cell-based, human. To be noted: 3–4 days, 0.5–250 µM, neg = negative in concentration used.
Source text: as §1, §2

Broadly, the IC50 is the concentration that inhibits the measured activity by half. The melting point is the temperature, or range, at which the solid turns liquid. Regarding `C#CC[Se]c1ccnc2c(S(=O)(=O)N(C)CC#C)cccc12` [6f, 4-(3-Propynylseleno)-8-[N-methyl-N-(3-propynyl)sulfamoyl]quinoline], the melting point fell in the range of 111 to 115 °C. Also, the 50% inhibitory concentration (IC50) in data set [1] was found to be 0.26 ± 0.01 µM. Moreover, the IC50 in data set [2] was determined as 55.6 ± 1.78 µM. Further, in data set [3], the IC50 stood at 64.5 ± 1.98 µM. Besides, in data set [4] (Homo sapiens, HFF-1, WST-1 assay, read-out: IC50 ± SD, HFF-1), the half-inhibitory concentration (IC50) was found to be 317 ± 5.46 µM.
The molecule `C#CC[Se]c1ccnc2cc(S(=O)(=O)N(C)CC#C)ccc12` [6e, 4-(3-Propynylseleno)-7-[N-methyl-N-(3-propynyl)sulfamoyl]quinoline] returned a melting point of 108 to 109 °C. In addition, in data set [1], the IC50 came out at 109 ± 2.11 µM. The IC50 in data set [2] came to 160 ± 3.23 µM. In addition, in data set [3], the 50% inhibitory concentration (IC50) was found to be 23.5 ± 1.02 µM. The “IC50 ± SD, HFF-1” value in data set [4] (WST-1 assay) is “neg”.
